Measured values published in paper PMC12027554, “Inhibition of ABCG2 by SCO-101 Enhances Chemotherapy Efficacy in Cancer” (International Journal of Molecular Sciences, 2025).
Read-outs that look alike come from different tables or passages of the source.

How the values were obtained:
[1] = set-up: method as in PMID 32628359; details: four independent Phase I studies; cited from earlier work
MKN45 cells = assay: Cell viability assay (CellTiter-Glo), MKN45; format: cell-based; details: Homo sapiens, MKN-45, 96 h
Method: (§1) Cells were seeded at a density of 0.2–1 × 10^4 cells/well into 96-well plates. One day after seeding, treatments were performed in triplicate for 72 h, or as otherwise indicated in the relevant panel/figure legend and kept at 37 °C/5% CO2. Growth medium alone (“untreated” cells) or DMSO was used as a control.
(§2) For SCH, SNU-5, and MKN45 cells, 50 μL of CellTiter-Glo® Reagent (Promega; Madison, WI, USA) was added to each well at the end of the treatments. The content was mixed for 5 min to facilitate cell lysis and plates incubated at room temperature for 10 min to stabilize luminescent signals, which were then recorded using an EnVision Multi Label Reader (PerkinElmer; Waltham, MA, USA).
(§3) Background values were subtracted prior to further analysis. The percentage of cell viability was expressed as relative values versus untreated cells as determined by the various assays. EC50/IC50 values were calculated using GraphPad Prism (v10.4.1) and the in-built non-linear regression [log (inhibitor) vs. response—variable slope (four parameters)] calculation. […] Synergy scores were calculated using the ZIP model, which takes the advantages of both the Loewe additivity and the Bliss independence models, aiming at a systematic assessment of various types of drug interaction patterns that may arise in a high-throughput drug combination screening.

MDR1/ABCB1 = MDR1/ABCB1 (Homo sapiens, UniProt P08183); assay: Efflux transporter inhibition, vesicular uptake into inside-out membrane vesicles (ABCB1); format: biochemical; details: 1 μM N-methyl-quinidine
Method: (§4) Efflux transporter inhibition was evaluated by measuring vesicular uptake into inside-out membrane vesicles (SOLVO biotechnology, Budapest, Hungary) expressing a single human ABC transporter (0.67 mg/mL ABCB1; 0.67 mg/mL ABCC2; 0.33 mg/mL ABCG2 membrane protein) of a probe substrate (1 μM N-methyl-quinidine for ABCB1; 100 μM 5(6)-carboxy-2′,7′-dichlorofluorescein for ABCC2; 1 μM Eestrone-3-sulfate for ABCG2) in the presence of SCO-101 with and without ATP (4 mM) in 96-well plate format. Control solvent and control inhibitors (4–60 μM verapamil for […]; 1–15 μM sulfasalazine for ABCG2; 5.5–150 μM benzbromarone for ABCC2) were incubated in parallel. Vesicular uptake was conducted at 37 °C in incubation buffer (10 mM Tris-HCl, pH 7.4, 10 mM MgCl2, 250 mM sucrose) and terminated after 1 min (ABCB1 and ABCG2) or 5 min (ABCC2) by adding ice-cold washing buffer (10 mM Tris-HCl, pH 7.4, 100 mM NaCl, 250 mM sucrose). […] Probe quantification was conducted using LC-MS/MS peak areas (solvent control with ATP − AMP = 100%). […] The remaining transporter activity % was calculated according to the formula below, and fitting was performed using GraphPad Prism: A%=AATP,sample−AAMP,sample/AATP,solvent−AAMP,solvent

MRP2/ABCC2 = target: T1, MRP2/ABCC2 (Homo sapiens, UniProt Q92887); assay: Efflux transporter inhibition, vesicular uptake into inside-out membrane vesicles (ABCC2); format: biochemical; details: 100 μM 5(6)-carboxy-2′,7′-dichlorofluorescein
T1 construct: purchased SOLVO biotechnology, Budapest, Hungary
Method: as §4

human UGT1A1 enzyme = target: T2, human UGT1A1 enzyme (Homo sapiens, UniProt P22309); assay: Inhibition of UGT1A1 glucuronidation activity (recombinant enzyme); format: biochemical; details: SCO-101 0.003–1 µM
T2 sequence (P22309 26-533): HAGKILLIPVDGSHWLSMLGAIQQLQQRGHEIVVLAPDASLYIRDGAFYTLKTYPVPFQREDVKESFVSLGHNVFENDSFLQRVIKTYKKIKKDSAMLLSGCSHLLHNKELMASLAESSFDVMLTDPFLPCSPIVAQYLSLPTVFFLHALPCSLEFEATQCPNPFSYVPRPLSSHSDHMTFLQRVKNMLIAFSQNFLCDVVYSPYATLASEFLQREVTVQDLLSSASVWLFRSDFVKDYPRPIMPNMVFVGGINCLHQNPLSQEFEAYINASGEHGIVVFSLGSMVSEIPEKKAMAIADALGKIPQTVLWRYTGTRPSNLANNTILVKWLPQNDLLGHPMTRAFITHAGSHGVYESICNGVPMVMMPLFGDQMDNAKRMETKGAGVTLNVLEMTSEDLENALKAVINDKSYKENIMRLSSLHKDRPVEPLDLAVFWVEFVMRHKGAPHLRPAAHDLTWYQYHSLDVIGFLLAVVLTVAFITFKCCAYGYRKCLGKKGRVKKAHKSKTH
Method: The inhibition potency of SCO-101 towards the human UGT1A1 enzyme was studied using recombinant human enzymes and the two different probe substrates β-estradiol (10 μM) and SN-38 (10 μM). Additionally, a positive control inhibitor at a single concentration (10 μM ketoconazole) and a solvent control were employed. Reactions were conducted at 37 °C after a 10 min pre-incubation at 37 °C in incubation buffer (10 mM Tris-HCl, pH 7.4, 5 mM MgCl2, […] alamethicin) and started by adding 5 mM UDPGA. Reactions were terminated after 30 min by adding an equal volume of ice-cold acetonitrile with 1% formic acid and 0.5 μM caffeine. The level of the UGT-specific probe glucuronidation was monitored by LC/MS-MS, and inhibition was observed as a reduced level of metabolite formation of the substrate.

SNU-5 cells = assay: Cell viability assay (CellTiter-Glo), SNU-5; format: cell-based; details: Homo sapiens, 96 h
Method: as §1, §2, §3

Sequence of MDR1/ABCB1 (P08183 whole entry): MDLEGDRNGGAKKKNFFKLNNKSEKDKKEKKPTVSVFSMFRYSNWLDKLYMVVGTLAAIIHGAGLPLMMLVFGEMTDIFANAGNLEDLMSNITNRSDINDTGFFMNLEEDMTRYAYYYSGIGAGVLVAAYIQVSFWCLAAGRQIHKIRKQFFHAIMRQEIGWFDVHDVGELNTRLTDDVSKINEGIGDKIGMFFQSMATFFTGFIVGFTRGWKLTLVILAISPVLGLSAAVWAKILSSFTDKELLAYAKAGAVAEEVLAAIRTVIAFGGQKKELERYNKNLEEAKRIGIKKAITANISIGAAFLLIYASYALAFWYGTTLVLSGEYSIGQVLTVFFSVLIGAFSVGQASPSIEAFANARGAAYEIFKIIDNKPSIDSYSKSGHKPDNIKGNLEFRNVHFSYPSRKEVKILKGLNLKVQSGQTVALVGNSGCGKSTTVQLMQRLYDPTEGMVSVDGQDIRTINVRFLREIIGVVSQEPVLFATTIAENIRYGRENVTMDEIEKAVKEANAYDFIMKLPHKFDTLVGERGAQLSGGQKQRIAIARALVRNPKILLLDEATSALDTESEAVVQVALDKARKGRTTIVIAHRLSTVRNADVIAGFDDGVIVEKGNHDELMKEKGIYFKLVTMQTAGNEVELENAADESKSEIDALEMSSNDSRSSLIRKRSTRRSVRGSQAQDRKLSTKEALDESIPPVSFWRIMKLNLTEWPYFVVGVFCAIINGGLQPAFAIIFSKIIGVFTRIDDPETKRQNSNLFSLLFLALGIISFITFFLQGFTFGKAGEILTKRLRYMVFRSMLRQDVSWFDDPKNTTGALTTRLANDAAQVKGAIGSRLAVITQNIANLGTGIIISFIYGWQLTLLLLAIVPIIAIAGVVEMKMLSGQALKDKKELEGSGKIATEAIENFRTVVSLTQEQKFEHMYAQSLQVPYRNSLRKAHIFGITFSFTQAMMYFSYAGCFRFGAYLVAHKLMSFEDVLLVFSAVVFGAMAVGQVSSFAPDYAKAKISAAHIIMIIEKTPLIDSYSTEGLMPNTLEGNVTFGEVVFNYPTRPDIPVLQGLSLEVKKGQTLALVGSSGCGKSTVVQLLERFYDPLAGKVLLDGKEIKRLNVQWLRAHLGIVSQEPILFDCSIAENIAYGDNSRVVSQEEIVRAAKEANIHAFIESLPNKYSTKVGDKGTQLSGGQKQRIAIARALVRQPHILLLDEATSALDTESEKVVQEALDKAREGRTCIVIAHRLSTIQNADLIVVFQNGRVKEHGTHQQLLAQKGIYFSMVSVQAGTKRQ
T1 sequence (Q92887 whole entry): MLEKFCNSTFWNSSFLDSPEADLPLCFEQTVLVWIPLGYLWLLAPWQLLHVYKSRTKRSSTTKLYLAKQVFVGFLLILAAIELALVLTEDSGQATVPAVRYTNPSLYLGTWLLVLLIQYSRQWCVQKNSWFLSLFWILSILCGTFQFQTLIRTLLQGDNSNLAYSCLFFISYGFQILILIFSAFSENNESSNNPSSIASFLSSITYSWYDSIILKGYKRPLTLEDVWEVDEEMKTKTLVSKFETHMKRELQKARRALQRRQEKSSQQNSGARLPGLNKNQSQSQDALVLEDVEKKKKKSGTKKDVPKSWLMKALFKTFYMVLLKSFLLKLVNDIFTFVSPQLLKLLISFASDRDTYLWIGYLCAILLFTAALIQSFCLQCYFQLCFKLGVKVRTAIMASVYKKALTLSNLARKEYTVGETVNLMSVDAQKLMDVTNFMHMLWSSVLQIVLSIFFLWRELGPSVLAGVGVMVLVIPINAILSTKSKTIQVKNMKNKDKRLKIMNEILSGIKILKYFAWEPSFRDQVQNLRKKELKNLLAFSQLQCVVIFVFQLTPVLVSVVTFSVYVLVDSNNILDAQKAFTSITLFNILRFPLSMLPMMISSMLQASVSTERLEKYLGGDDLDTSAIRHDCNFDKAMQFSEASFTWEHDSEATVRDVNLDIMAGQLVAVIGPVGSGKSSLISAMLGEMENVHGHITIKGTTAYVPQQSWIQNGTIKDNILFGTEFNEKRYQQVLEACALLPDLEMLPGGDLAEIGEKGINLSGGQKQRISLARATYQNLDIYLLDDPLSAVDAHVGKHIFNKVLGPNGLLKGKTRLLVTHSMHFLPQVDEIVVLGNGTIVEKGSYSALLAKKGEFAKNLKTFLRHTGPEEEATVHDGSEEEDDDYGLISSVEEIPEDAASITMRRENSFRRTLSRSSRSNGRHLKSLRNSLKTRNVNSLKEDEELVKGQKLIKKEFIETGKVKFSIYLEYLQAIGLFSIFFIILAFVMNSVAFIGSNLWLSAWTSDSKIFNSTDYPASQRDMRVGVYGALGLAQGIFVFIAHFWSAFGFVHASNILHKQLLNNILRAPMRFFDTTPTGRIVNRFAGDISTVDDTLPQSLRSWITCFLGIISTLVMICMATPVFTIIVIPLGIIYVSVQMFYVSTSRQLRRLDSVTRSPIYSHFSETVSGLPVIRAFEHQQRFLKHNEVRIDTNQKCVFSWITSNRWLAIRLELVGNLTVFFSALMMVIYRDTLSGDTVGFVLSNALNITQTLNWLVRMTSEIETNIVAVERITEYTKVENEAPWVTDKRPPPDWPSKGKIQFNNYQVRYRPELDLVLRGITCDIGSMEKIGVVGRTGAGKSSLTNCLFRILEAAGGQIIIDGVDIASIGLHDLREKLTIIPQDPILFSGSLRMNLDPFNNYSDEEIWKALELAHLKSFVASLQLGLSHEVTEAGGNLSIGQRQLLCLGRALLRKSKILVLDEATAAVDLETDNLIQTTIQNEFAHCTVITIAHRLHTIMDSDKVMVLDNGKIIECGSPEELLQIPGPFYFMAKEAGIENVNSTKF

IC50 (MKN45 cells): > 50 µM | IC50 (MDR1/ABCB1): 16.1 µM | IC50 (MRP2/ABCC2): 24.1 µM | IC50 (human UGT1A1 enzyme; substrate SN-38 10 μM, read-out: IC50, UGT1A1 glucuronidation of SN-38): 0.1 µM | IC50 (human UGT1A1 enzyme; substrate β-estradiol 10 μM, read-out: IC50, UGT1A1 glucuronidation of β-estradiol): 0.28 µM | IC50 (SNU-5 cells): > 50 µM
SMILES: O=C(Nc1cc(C(F)(F)F)cc(C(F)(F)F)c1)Nc1ccc(Br)cc1-c1nnn[nH]1 [SCO-101, N-[4-Bromo-2-(1H-1,2,3,4-tetrazol-5-yl)phenyl]-N′-[3,5-bis(trifluoromethyl)phenyl]urea]
toxicity [1]: low SCO-101 toxicity
